In the supplement of paper PMC13380429:
± gives the standard deviation of the averaged measurements.

Legend:
Details in all cases: 72 h
Caco-2 [1] = assay: cell viability relative to DMSO; higher = less toxic
Calu-3 [2] = assay: as above
HepG2 [3] = assay: as above
U2OS [4] = assay: as above
Vero E6 [5] = assay: as above
Caco-2 [6] = assay: relative viability EC50 (midpoint between 100% and the lowest measured viability); higher = less toxic
Calu-3 [7] = assay: as above
HepG2 [8] = assay: as above
U2OS [9] = assay: as above
Vero E6 [10] = assay: as above
Caco-2 [11] = assay: drug sensitivity score (DSS) for viability; higher = more toxic; extreme values may be limits of the assay
Calu-3 [12] = assay: as above
HepG2 [13] = assay: as above
U2OS [14] = assay: as above
Vero E6 [15] = assay: as above

SMILES	cell viability (Caco-2 [1]; 1 nM) [%]	cell viability (Caco-2 [1]; 10 nM) [%]	cell viability (Caco-2 [1]; 100 nM) [%]	cell viability (Caco-2 [1]; 1000 nM) [%]	cell viability (Caco-2 [1]; 10000 nM) [%]	cell viability (Calu-3 [2]; 1 nM) [%]	cell viability (Calu-3 [2]; 10 nM) [%]	cell viability (Calu-3 [2]; 100 nM) [%]	cell viability (Calu-3 [2]; 1000 nM) [%]	cell viability (Calu-3 [2]; 10000 nM) [%]	cell viability (HepG2 [3]; 1 nM) [%]	cell viability (HepG2 [3]; 10 nM) [%]	cell viability (HepG2 [3]; 100 nM) [%]	cell viability (HepG2 [3]; 1000 nM) [%]	cell viability (HepG2 [3]; 10000 nM) [%]	cell viability (U2OS [4]; 1 nM) [%]	cell viability (U2OS [4]; 10 nM) [%]	cell viability (U2OS [4]; 100 nM) [%]	cell viability (U2OS [4]; 1000 nM) [%]	cell viability (U2OS [4]; 10000 nM) [%]	cell viability (Vero E6 [5]; 1 nM) [%]	cell viability (Vero E6 [5]; 10 nM) [%]	cell viability (Vero E6 [5]; 100 nM) [%]	cell viability (Vero E6 [5]; 1000 nM) [%]	cell viability (Vero E6 [5]; 10000 nM) [%]	relative viability EC50 (Caco-2 [6]) [µM]	relative viability EC50 (Calu-3 [7]) [µM]	relative viability EC50 (HepG2 [8]) [µM]	relative viability EC50 (U2OS [9]) [µM]	relative viability EC50 (Vero E6 [10]) [µM]	drug sensitivity score (Caco-2 [11])	drug sensitivity score (Calu-3 [12])	drug sensitivity score (HepG2 [13])	drug sensitivity score (U2OS [14])	drug sensitivity score (Vero E6 [15])
COc1ccc(Cc2cnc(N)nc2N)cc1OC [diaveridine]	96.9	90.4	100	93	96.6	86.6	94.4	97.7	84.3	88.9	95.6	102	89.2	95.8	98	105	103	107	96.7	102	99.5	104	97	98.2	94.3	> 10	> 10	> 10	> 10	> 10	0	0	0	0	0
C[C@H](NC(=O)Cc1cc(F)cc(F)c1)C(=O)N[C@@H]1C(=O)N(C)c2ccccc2-c2ccccc21	89.5	88.6	93.1	94.3	96.7	106	89.5	90.6	97	94.9	112	95.7	102	98.2	98.6	94.8	96.8	90.9	91.5	93.1	100	98.7	97.1	102	109	> 10	> 10	> 10	> 10	> 10	0	0	0	0	0
COc1cc(C(=O)NS(=O)(=O)c2ccccc2C)ccc1Cc1cn(C)c2ccc(NC(=O)OC3CCCC3)cc12 [zafirlukast]	92.3	104	105	97.8	99.2	96.9	101	97.2	100	110	104	101	109	94.6	96.6	92.7	98.4	103	105	100	96.2	92.5	91.2	94.2	94.6	> 10	> 10	> 10	> 10	> 10	0	0	0	0	0
NCC(=O)N1C[C@H](NC(=O)c2ccccc2)C[C@H]1C(=O)O [danegaptide]	98.3	97.1	90.7	86.3	107	98.6	93.3	101	96.4	91.1	106	102	99.7	101	104	93.6	93.6	98.5	101	99.3	101	101	93.8	99.9	106	> 10	> 10	> 10	> 10	> 10	0	0	0	0	0
NC(=O)c1ccc(-c2nc(-c3ccc4c(c3)OCCO4)c(-c3ccccn3)[nH]2)cc1 [D-4476]	93	95.1	92.4	92.8	98.6	84.4	101	96.1	108	98.8	105	103	96.3	96	105	96.1	97.9	96.7	99.5	91.9	102	93.4	100	106	106	> 10	> 10	> 10	> 10	> 10	0	0	0	0	0
FC(F)(F)C(F)(F)C(F)(F)N(C(F)(F)C(F)(F)C(F)(F)F)C(F)(F)C(F)(F)C(F)(F)F [perfluamine]	98	96.8	95	88.6	101	103	93.2	99.7	107	98.3	101	97.7	92.2	101	93.7	105	97	99.8	97.1	100	96.5	97.9	100	103	91.1	> 10	> 10	> 10	> 10	> 10	0	0	0	0	0
CCCCCNCC(N)=O [milacemide]	100	90.8	91.4	99.6	95.5	108	113	107	99.6	95	109	97.9	95.2	94.6	110	103	100	98.3	101	98.6	99.9	105	104	97.3	101	> 10	> 10	> 10	> 10	> 10	0	0	0	0	0
C[C@@](Cc1ccc(O)c(O)c1)(NN)C(=O)O [carbidopa]	98.1	94.4	95.1	110	108	100	103	89.5	114	99.9	107	113	101	98.5	95.8	92.9	99.9	92.8	100	102	92.6	87.6	91.4	90.4	106	> 10	> 10	> 10	> 10	> 10	0	0	0	0	0
O=C(O)CCC(=O)OC[C@@H](NC(=O)C(Cl)Cl)[C@H](O)c1ccc([N+](=O)[O-])cc1 [chloramphenicol-sodium-succinate]	103	95.1	98.2	100	103	108	97.1	97.3	91	106	105	114	88.3	103	96.3	100	96.9	98.1	99.3	102	104	104	96.5	102	97.2	> 10	> 10	> 10	> 10	> 10	0	0	0	0	0
CC(C)NC[C@@H](O)COc1ccc(CC(N)=O)cc1 (racemic) [atenolol-(+/-)]	99.8 ± 9.3	99 ± 11	105 ± 7	88.3 ± 0.99	92.1 ± 0.85	94.2 ± 4.5	101 ± 11	96.5 ± 3.4	97.8 ± 2.3	102 ± 2.6	101 ± 10	92 ± 14	98.9 ± 9.5	96.2 ± 8.2	99.2 ± 18	98.2 ± 3.5	96 ± 3	100.1 ± 0.28	97 ± 0.71	99.1 ± 3.7	103 ± 4.4	85.3 ± 10	105 ± 4.5	92.4 ± 13	97 ± 5.9	> 10	> 10	> 10	> 10	> 10	0.25 ± 0.35	0	0.05 ± 0.071	0	0.1 ± 0.14
c1cnc2cc3c(cc2n1)[C@@H]1CNC[C@H]3C1 [varenicline]	95.4	91.9	103	93.1	93.7	105	99.1	108	98.1	105	97.2	88.7	90.4	95.4	101	97.5	93.5	103	96.3	104	91	99.8	91.4	98.7	104	> 10	> 10	> 10	> 10	> 10	0	0	0	0	0
OCCN(CCO)c1nc(N2CCCCC2)c2nc(N(CCO)CCO)nc(N3CCCCC3)c2n1 [dipyridamole]	114	98.9	102	96.2	87.1	99.1	103	112	96.4	104	94.2	101	96.6	100	96.7	103	99.2	101	102	99.8	104	90.1	108	95	95.3	> 10	> 10	> 10	> 10	> 10	0.3	0	0	0	0
O=S(=O)(c1cccc2c(Cl)cccc12)N1CCCNCC1 [ML9]	94.5	91.6	97.3	88	87.7	110	104	110	99.9	98.9	96.3	96.5	90.8	93.3	74.7	95.5	93.3	96.9	102	103	89	96.9	87.9	96.8	94.1	> 10	> 10		> 10	> 10	0.1	0	1.5	0	0
O/N=C/c1ccc(-c2ccc(O)c(F)c2)c(Cl)c1O [FERb-033]	98.1	95.2	93.4	91.9	81.4	104	101	100	98.9	84.8	95.7	104	100	99.8	71.1	102	97.1	99.5	96.9	93.9	97.7	106	98.8	103	95.7	> 10	> 10		> 10	> 10	0.8	0.3	1.2	0	0
